According to PubChem BioAssay (NCI):
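The compound was tested at five concentrations on cells cultured in 96-well plates, with a 48-hour exposure period. At the GI50, growth is halved. TGI marks complete inhibition of growth.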

Tests used:
Assay in all cases: inhibition of tumour cell growth, NCI panel, 48 h; in the data active = GI50 below about 0.43 µM; inactive = the rest
786-0 renal = tested on: 786-0 renal
A498 renal = tested on: A498 renal
A549 NSCLC = tested on: A549 NSCLC
ACHN renal = tested on: ACHN renal
BT-549 breast = tested on: BT-549 breast
CAKI-1 renal = tested on: CAKI-1 renal
CCRF-CEM leukemia = tested on: CCRF-CEM leukemia
COLO 205 colon = tested on: COLO 205 colon
DU-145 prostate = tested on: DU-145 prostate
EKVX NSCLC = tested on: EKVX NSCLC
HCC-2998 colon = tested on: HCC-2998 colon
HCT-116 colon = tested on: HCT-116 colon
HCT-15 colon = tested on: HCT-15 colon
HL-60(TB) leukemia = tested on: HL-60(TB) leukemia
HOP-62 NSCLC = tested on: HOP-62 NSCLC
HOP-92 NSCLC = tested on: HOP-92 NSCLC
HS 578T breast = tested on: HS 578T breast
HT29 colon = tested on: HT29 colon
IGROV1 ovarian = tested on: IGROV1 ovarian
K-562 leukemia = tested on: K-562 leukemia
LOX IMVI melanoma = tested on: LOX IMVI melanoma
M14 melanoma = tested on: M14 melanoma
MALME-3M melanoma = tested on: MALME-3M melanoma
MCF7 breast = tested on: MCF7 breast
MDA-MB-231 breast = tested on: MDA-MB-231 breast
MDA-MB-435 = tested on: MDA-MB-435
MOLT-4 leukemia = tested on: MOLT-4 leukemia
NCI-H226 lung = tested on: NCI-H226 lung
NCI-H23 lung = tested on: NCI-H23 lung
NCI-H460 lung = tested on: NCI-H460 lung
NCI-H522 lung = tested on: NCI-H522 lung
NCI/ADR-RES ovarian = tested on: NCI/ADR-RES ovarian
OVCAR-4 ovarian = tested on: OVCAR-4 ovarian
OVCAR-5 ovarian = tested on: OVCAR-5 ovarian
OVCAR-8 ovarian = tested on: OVCAR-8 ovarian
PC-3 prostate = tested on: PC-3 prostate
SF-268 CNS = tested on: SF-268 CNS
SF-295 CNS = tested on: SF-295 CNS
SF-539 CNS = tested on: SF-539 CNS
SK-MEL-2 melanoma = tested on: SK-MEL-2 melanoma
SK-MEL-28 melanoma = tested on: SK-MEL-28 melanoma
SK-MEL-5 melanoma = tested on: SK-MEL-5 melanoma
SK-OV-3 ovarian = tested on: SK-OV-3 ovarian
SN12C renal = tested on: SN12C renal
SNB-19 CNS = tested on: SNB-19 CNS
SNB-75 CNS = tested on: SNB-75 CNS
SR leukemia = tested on: SR leukemia
SW-620 colon = tested on: SW-620 colon
T-47D breast = tested on: T-47D breast
TK-10 renal = tested on: TK-10 renal
U251 CNS = tested on: U251 CNS
UACC-62 melanoma = tested on: UACC-62 melanoma
UO-31 renal = tested on: UO-31 renal
KM12 colon = tested on: KM12 colon
OVCAR-3 ovarian = tested on: OVCAR-3 ovarian
RPMI-8226 leukemia = tested on: RPMI-8226 leukemia
RXF 393 renal = tested on: RXF 393 renal
UACC-257 melanoma = tested on: UACC-257 melanoma

COc1cccc(/C=C2\COc3ccc(-c4ccccc4)cc3C2=O)c1
16.2 µM: TGI (PC-3 prostate)
6.14 µM: TGI (OVCAR-8 ovarian)
3.78 µM: TGI (NCI-H460 lung)
35.8 µM: TGI (SK-OV-3 ovarian)
6.79 µM: TGI (NCI-H226 lung)
10.3 µM: TGI (SF-295 CNS)
28.1 µM: TGI (CCRF-CEM leukemia)
9.41 µM: TGI (HOP-92 NSCLC)
4.54 µM: TGI (SW-620 colon)
7.21 µM: TGI (SNB-19 CNS)
7.49 µM: TGI (SN12C renal)
8.39 µM: TGI (IGROV1 ovarian)
3.55 µM: TGI (SK-MEL-5 melanoma)
5.06 µM: TGI (COLO 205 colon)
10 µM: TGI (NCI-H23 lung)
4.12 µM: TGI (SF-539 CNS)
9.17 µM: TGI (MCF7 breast)
4.72 µM: TGI (HCT-15 colon) | TGI (HT29 colon)
> 100 µM: TGI (EKVX NSCLC) | TGI (HL-60(TB) leukemia) | TGI (K-562 leukemia) | TGI (MDA-MB-435) | TGI (MOLT-4 leukemia) | TGI (SR leukemia)
7.61 µM: TGI (MDA-MB-231 breast)
14.5 µM: TGI (NCI/ADR-RES ovarian)
7.63 µM: TGI (OVCAR-4 ovarian)
4.06 µM: TGI (NCI-H522 lung)
13.2 µM: TGI (OVCAR-5 ovarian)
3.95 µM: TGI (HCC-2998 colon)
6.42 µM: TGI (CAKI-1 renal)
4.94 µM: TGI (BT-549 breast)
5.03 µM: TGI (TK-10 renal)
6.61 µM: TGI (HS 578T breast)
4.8 µM: TGI (SNB-75 CNS)
3.05 µM: TGI (U251 CNS)
3.52 µM: TGI (A498 renal)
18.7 µM: TGI (A549 NSCLC)
3.47 µM: TGI (HCT-116 colon)
3.62 µM: TGI (SK-MEL-28 melanoma)
inactive: GI50 (786-0 renal) 2630 nM | GI50 (A498 renal) 1890 nM | GI50 (A549 NSCLC) 3.17 µM | GI50 (ACHN renal) 2130 nM | GI50 (BT-549 breast) 2.09 µM | GI50 (CAKI-1 renal) 2550 nM | GI50 (CCRF-CEM leukemia) 2.42 µM | GI50 (COLO 205 colon) 2.18 µM | GI50 (DU-145 prostate) 2050 nM | GI50 (EKVX NSCLC) 4.8 µM | GI50 (HCC-2998 colon) 2000 nM | GI50 (HCT-116 colon) 1.68 µM | GI50 (HCT-15 colon) 1.78 µM | GI50 (HL-60(TB) leukemia) 2520 nM | GI50 (HOP-62 NSCLC) 3.91 µM | GI50 (HOP-92 NSCLC) 2340 nM | GI50 (HS 578T breast) 2760 nM | GI50 (HT29 colon) 1700 nM | GI50 (IGROV1 ovarian) 3.12 µM | GI50 (K-562 leukemia) 3.32 µM | GI50 (LOX IMVI melanoma) 2020 nM | GI50 (M14 melanoma) 3.87 µM | GI50 (MALME-3M melanoma) 2530 nM | GI50 (MCF7 breast) 2.05 µM | GI50 (MDA-MB-231 breast) 2940 nM | GI50 (MDA-MB-435) 3.21 µM | GI50 (MOLT-4 leukemia) 3.09 µM | GI50 (NCI-H226 lung) 2570 nM | GI50 (NCI-H23 lung) 3.14 µM | GI50 (NCI-H460 lung) 1.74 µM | GI50 (NCI-H522 lung) 1860 nM | GI50 (NCI/ADR-RES ovarian) 3.63 µM | GI50 (OVCAR-4 ovarian) 2790 nM | GI50 (OVCAR-5 ovarian) 3.67 µM | GI50 (OVCAR-8 ovarian) 2210 nM | GI50 (PC-3 prostate) 2870 nM | GI50 (SF-268 CNS) 3.52 µM | GI50 (SF-295 CNS) 2.52 µM | GI50 (SF-539 CNS) 2050 nM | GI50 (SK-MEL-2 melanoma) 2380 nM | GI50 (SK-MEL-28 melanoma) 1910 nM | GI50 (SK-MEL-5 melanoma) 1670 nM | GI50 (SK-OV-3 ovarian) 5.25 µM | GI50 (SN12C renal) 2330 nM | GI50 (SNB-19 CNS) 2700 nM | GI50 (SNB-75 CNS) 1990 nM | GI50 (SR leukemia) 1980 nM | GI50 (SW-620 colon) 2010 nM | GI50 (T-47D breast) 2.03 µM | GI50 (TK-10 renal) 2350 nM | GI50 (U251 CNS) 1560 nM | GI50 (UACC-62 melanoma) 3.06 µM | GI50 (UO-31 renal) 2980 nM
9.12 µM: TGI (UO-31 renal)
14.9 µM: TGI (M14 melanoma)
12.8 µM: TGI (UACC-62 melanoma)
5.59 µM: TGI (ACHN renal)
11.6 µM: TGI (SF-268 CNS)
6.45 µM: TGI (786-0 renal)
5.27 µM: TGI (SK-MEL-2 melanoma)
5.43 µM: TGI (DU-145 prostate)
4.62 µM: TGI (LOX IMVI melanoma)
12.6 µM: TGI (MALME-3M melanoma)
9.58 µM: TGI (HOP-62 NSCLC)
4.98 µM: TGI (T-47D breast)

CCn1c(-c2nonc2N)nc2cncc(C(=O)N3CC[C@H](N)C3)c21
inactive: GI50 (786-0 renal) > 20400 nM | GI50 (A498 renal) 1200 nM | GI50 (A549 NSCLC) 7.29 µM | GI50 (ACHN renal) > 25000 nM | GI50 (BT-549 breast) 3.92 µM | GI50 (CAKI-1 renal) 2350 nM | GI50 (CCRF-CEM leukemia) 15.2 µM | GI50 (COLO 205 colon) 5.87 µM | GI50 (DU-145 prostate) > 25000 nM | GI50 (HCC-2998 colon) > 25000 nM | GI50 (HCT-116 colon) 9.9 µM | GI50 (HCT-15 colon) 8.29 µM | GI50 (HL-60(TB) leukemia) > 25000 nM | GI50 (HOP-62 NSCLC) 7.38 µM | GI50 (HS 578T breast) 559 nM | GI50 (HT29 colon) > 25000 nM | GI50 (IGROV1 ovarian) > 25 µM | GI50 (K-562 leukemia) > 25 µM | GI50 (KM12 colon) > 25 µM | GI50 (LOX IMVI melanoma) > 25000 nM | GI50 (M14 melanoma) 24.6 µM | GI50 (MALME-3M melanoma) > 25000 nM | GI50 (MCF7 breast) 14.1 µM | GI50 (MDA-MB-231 breast) > 25000 nM | GI50 (MDA-MB-435) > 25 µM | GI50 (MOLT-4 leukemia) > 25 µM | GI50 (NCI-H226 lung) 966 nM | GI50 (NCI-H23 lung) > 25 µM | GI50 (NCI-H460 lung) 17.7 µM | GI50 (NCI-H522 lung) > 9560 nM | GI50 (NCI/ADR-RES ovarian) > 25 µM | GI50 (OVCAR-3 ovarian) > 25 µM | GI50 (OVCAR-4 ovarian) > 25000 nM | GI50 (OVCAR-5 ovarian) > 25 µM | GI50 (OVCAR-8 ovarian) > 25000 nM | GI50 (PC-3 prostate) > 25000 nM | GI50 (RPMI-8226 leukemia) > 25 µM | GI50 (RXF 393 renal) > 6.57 µM | GI50 (SF-268 CNS) > 19.5 µM | GI50 (SF-295 CNS) 5.05 µM | GI50 (SF-539 CNS) 2630 nM | GI50 (SK-MEL-2 melanoma) > 25000 nM | GI50 (SK-MEL-28 melanoma) > 25000 nM | GI50 (SK-MEL-5 melanoma) > 25000 nM | GI50 (SK-OV-3 ovarian) > 25 µM | GI50 (SN12C renal) > 25000 nM | GI50 (SNB-19 CNS) > 25000 nM | GI50 (SR leukemia) 2010 nM | GI50 (SW-620 colon) > 25000 nM | GI50 (T-47D breast) 24.9 µM | GI50 (TK-10 renal) 549 nM | GI50 (U251 CNS) > 25000 nM | GI50 (UACC-257 melanoma) > 25 µM | GI50 (UACC-62 melanoma) > 25 µM
> 8.77 µM: TGI (UO-31 renal)
24.7 µM: TGI (COLO 205 colon)
> 25 µM: TGI (786-0 renal) | TGI (A498 renal) | TGI (A549 NSCLC) | TGI (ACHN renal) | TGI (BT-549 breast) | TGI (CAKI-1 renal) | TGI (CCRF-CEM leukemia) | TGI (DU-145 prostate) | TGI (HCC-2998 colon) | TGI (HCT-116 colon) | TGI (HCT-15 colon) | TGI (HL-60(TB) leukemia) | TGI (HOP-62 NSCLC) | TGI (HS 578T breast) | TGI (HT29 colon) | TGI (IGROV1 ovarian) | TGI (K-562 leukemia) | TGI (KM12 colon) | TGI (LOX IMVI melanoma) | TGI (M14 melanoma) | TGI (MALME-3M melanoma) | TGI (MCF7 breast) | TGI (MDA-MB-231 breast) | TGI (MDA-MB-435) | TGI (MOLT-4 leukemia) | TGI (NCI-H226 lung) | TGI (NCI-H23 lung) | TGI (NCI-H460 lung) | TGI (NCI-H522 lung) | TGI (NCI/ADR-RES ovarian) | TGI (OVCAR-3 ovarian) | TGI (OVCAR-4 ovarian) | TGI (OVCAR-5 ovarian) | TGI (OVCAR-8 ovarian) | TGI (PC-3 prostate) | TGI (RPMI-8226 leukemia) | TGI (RXF 393 renal) | TGI (SF-268 CNS) | TGI (SF-295 CNS) | TGI (SF-539 CNS) | TGI (SK-MEL-2 melanoma) | TGI (SK-MEL-28 melanoma) | TGI (SK-MEL-5 melanoma) | TGI (SK-OV-3 ovarian) | TGI (SN12C renal) | TGI (SNB-19 CNS) | TGI (SR leukemia) | TGI (SW-620 colon) | TGI (T-47D breast) | TGI (U251 CNS) | TGI (UACC-257 melanoma) | TGI (UACC-62 melanoma)
> 7.84 µM: TGI (SNB-75 CNS)
active: GI50 (SNB-75 CNS) 319 nM | GI50 (UO-31 renal) 269 nM
9.22 µM: TGI (TK-10 renal)
